# Experiments:
# Experiment in all cases: Kinase profiling in a biochemical assay panel (mobility shift assays and ELISA), %-inhibition at 1 μM; selectivity entropy
# [1] = target: panel of more than 300 wild-type and mutant kinases (313 kinase panel) (Homo sapiens, UniProt P08922)
# [2] = target: panel of more than 300 wild-type and mutant kinases (313 kinase panel) (Homo sapiens, UniProt P23443)
# [3] = target: panel of more than 300 wild-type and mutant kinases (313 kinase panel) (Homo sapiens, UniProt P36507)
# [4] = target: panel of more than 300 wild-type and mutant kinases (313 kinase panel) (Homo sapiens, UniProt P78368); conditions: kinase CK1γ2; 1 μM compound
# [5] = target: T1, panel of more than 300 wild-type and mutant kinases (313 kinase panel) (Homo sapiens, UniProt Q12851); conditions: kinase MAP4K2; compound at 1 μM
# T1 sequence (Q12851 1-820): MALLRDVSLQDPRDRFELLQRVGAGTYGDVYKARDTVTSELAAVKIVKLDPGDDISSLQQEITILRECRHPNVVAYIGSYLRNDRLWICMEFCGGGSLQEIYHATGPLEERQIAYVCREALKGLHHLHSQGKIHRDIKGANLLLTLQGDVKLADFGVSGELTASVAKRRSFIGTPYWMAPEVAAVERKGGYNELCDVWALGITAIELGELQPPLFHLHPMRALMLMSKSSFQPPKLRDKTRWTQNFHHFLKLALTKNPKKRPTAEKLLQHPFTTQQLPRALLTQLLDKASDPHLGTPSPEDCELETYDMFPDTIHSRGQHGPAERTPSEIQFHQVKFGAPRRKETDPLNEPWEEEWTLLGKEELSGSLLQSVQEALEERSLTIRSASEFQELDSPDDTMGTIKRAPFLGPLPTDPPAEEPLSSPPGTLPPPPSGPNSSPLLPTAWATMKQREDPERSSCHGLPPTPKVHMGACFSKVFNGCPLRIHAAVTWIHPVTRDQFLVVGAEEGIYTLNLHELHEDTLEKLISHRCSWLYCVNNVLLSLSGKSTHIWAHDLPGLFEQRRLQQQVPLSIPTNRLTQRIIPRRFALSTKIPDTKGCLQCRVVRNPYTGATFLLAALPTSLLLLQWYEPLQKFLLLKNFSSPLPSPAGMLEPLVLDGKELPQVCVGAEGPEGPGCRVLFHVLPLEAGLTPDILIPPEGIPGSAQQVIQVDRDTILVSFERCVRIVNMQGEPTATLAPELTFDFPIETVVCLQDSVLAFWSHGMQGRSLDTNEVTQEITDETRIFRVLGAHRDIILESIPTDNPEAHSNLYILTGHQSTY
# [6] = target: T2, panel of more than 300 wild-type and mutant kinases (313 kinase panel) (Homo sapiens, UniProt Q13188); conditions: kinase MST2; 1 μM
# T2 sequence (Q13188 1-491): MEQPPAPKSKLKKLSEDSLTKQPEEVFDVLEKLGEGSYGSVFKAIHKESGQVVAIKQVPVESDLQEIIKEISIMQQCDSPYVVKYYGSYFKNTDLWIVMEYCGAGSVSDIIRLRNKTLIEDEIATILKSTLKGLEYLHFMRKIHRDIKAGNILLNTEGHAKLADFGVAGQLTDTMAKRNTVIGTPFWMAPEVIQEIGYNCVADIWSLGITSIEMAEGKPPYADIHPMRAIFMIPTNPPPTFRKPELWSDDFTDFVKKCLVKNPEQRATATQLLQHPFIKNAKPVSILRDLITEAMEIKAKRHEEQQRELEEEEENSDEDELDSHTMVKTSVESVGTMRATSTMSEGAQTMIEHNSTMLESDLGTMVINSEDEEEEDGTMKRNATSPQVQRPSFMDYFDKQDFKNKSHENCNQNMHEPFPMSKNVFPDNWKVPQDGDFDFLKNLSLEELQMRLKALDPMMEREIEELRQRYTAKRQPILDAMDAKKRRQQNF
# [7] = target: panel of more than 300 wild-type and mutant kinases (313 kinase panel) (Homo sapiens, UniProt Q7KZI7)
# [8] = target: panel of more than 300 wild-type and mutant kinases (313 kinase panel) (Homo sapiens, UniProt Q96GD4); conditions: kinase AurB; 1 μM compound
# Chain of panel of more than 300 wild-type and mutant kinases (313 kinase panel) (Homo sapiens, UniProt Q96GD4) (Q96GD4 whole entry, change not shown): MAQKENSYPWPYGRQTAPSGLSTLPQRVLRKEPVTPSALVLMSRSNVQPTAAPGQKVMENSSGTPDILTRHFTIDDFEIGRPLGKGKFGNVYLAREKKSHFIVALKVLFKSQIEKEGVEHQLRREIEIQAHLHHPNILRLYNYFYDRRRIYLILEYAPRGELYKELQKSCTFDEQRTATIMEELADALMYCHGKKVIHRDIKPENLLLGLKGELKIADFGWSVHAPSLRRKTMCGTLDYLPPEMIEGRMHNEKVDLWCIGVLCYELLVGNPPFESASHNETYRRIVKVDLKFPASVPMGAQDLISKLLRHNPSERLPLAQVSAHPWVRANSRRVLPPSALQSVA
# [9] = target: T3, panel of more than 300 wild-type and mutant kinases (313 kinase panel) (Homo sapiens, UniProt Q9HBY8); conditions: kinase SGK2; 1 μM
# T3 sequence (Q9HBY8 1-367): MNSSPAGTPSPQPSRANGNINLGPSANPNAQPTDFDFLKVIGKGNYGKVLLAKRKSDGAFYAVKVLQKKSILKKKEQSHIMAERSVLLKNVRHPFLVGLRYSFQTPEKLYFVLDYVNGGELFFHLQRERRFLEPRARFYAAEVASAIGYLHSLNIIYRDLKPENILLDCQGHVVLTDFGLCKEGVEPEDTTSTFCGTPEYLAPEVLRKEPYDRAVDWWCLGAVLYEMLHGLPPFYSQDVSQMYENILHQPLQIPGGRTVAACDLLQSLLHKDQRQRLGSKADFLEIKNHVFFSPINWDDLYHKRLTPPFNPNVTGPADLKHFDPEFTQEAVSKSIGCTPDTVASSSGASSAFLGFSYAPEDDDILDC
# [10] = target: panel of more than 300 wild-type and mutant kinases (313 kinase panel) (Homo sapiens, UniProt Q9UBS0); conditions: kinase p70S6Kβ; 1 μM
# [11] = target: panel of more than 300 wild-type and mutant kinases (313 kinase panel) (Homo sapiens, UniProt Q9UM73)
# [12] = kinase MAP2K2, compound at 1 μM
Structure (SMILES),"%-inhibition of ROS ([1]; kinase ROS, 1 μM)","%-inhibition of p70S6K ([2]; kinase p70S6K, 1 μM)","%-inhibition of MAP2K2 [3, 12]","%-inhibition, CK1γ2 [4]",%-inhibition of MAP4K2 [5],%-inhibition of MST2 [6],"%-inhibition of MARK2 ([7]; kinase MARK2, compound at 1 μM)","%-inhibition, AurB [8]",%-inhibition of SGK2 [9],%-inhibition of p70S6Kβ [10],"%-inhibition, ALK ([11]; kinase ALK, 1 μM compound)",%-inhibition of ROS ([1]; 1 µM),%-inhibition of p70S6K ([2]; 1 µM),"%-inhibition, ALK ([11]; 1 µM)",%-inhibition of MAP2K2 ([3]; 1 µM),%-inhibition of MARK2 ([7]; 1 µM)
CO[C@H]1C[C@@H]2CC[C@@H](C)[C@@](O)(O2)C(=O)C(=O)N2CCCC[C@H]2C(=O)O[C@H]([C@H](C)C[C@@H]2CC[C@@H](OC(=O)C(C)(CO)CO)[C@H](OC)C2)CC(=O)[C@H](C)/C=C(\C)[C@@H](O)[C@@H](OC)C(=O)[C@H](C)C[C@H](C)/C=C/C=C/C=C/1C [temsirolimus],-2%,-13%,13%,-3.32%,-3%,-3.41%,-6%,-4%,-2.66%,-7%,-2%,–,–,–,–,–
CNC(=O)c1cc(Oc2ccc(NC(=O)Nc3ccc(Cl)c(C(F)(F)F)c3)c(F)c2)ccn1 [regorafenib],5%,92%,16%,-3%,46%,-6.39%,2.17%,20%,1%,1.41%,-3.43%,–,–,–,–,–
CO[C@H]1C[C@@H]2CC[C@@H](C)[C@@](O)(O2)C(=O)C(=O)N2CCCC[C@H]2C(=O)O[C@H]([C@H](C)C[C@@H]2CC[C@@H](OCCO)[C@H](OC)C2)CC(=O)[C@H](C)/C=C(\C)[C@@H](O)[C@@H](OC)C(=O)[C@H](C)C[C@H](C)/C=C/C=C/C=C/1C [everolimus],-0.608%,-13%,11%,-2.3%,-7%,-2.3%,-6%,-1.39%,-2%,-11%,1.68%,–,–,–,–,–
COc1cc2nccc(Oc3ccc(NC(=O)C4(C(=O)Nc5ccc(F)cc5)CC4)cc3)c2cc1OC [cabozantinib],–,8%,61%,0.731%,35%,-0.31%,-4%,89%,-1.48%,-3.52%,49%,–,–,–,–,–
Cc1nc(Nc2ncc(C(=O)Nc3c(C)cccc3Cl)s2)cc(N2CCN(CCO)CC2)n1 [dasatinib],–,11%,–,20%,–,–,–,–,6%,–,–,–,–,–,–,–
COc1cc2c(Nc3ccc(Br)cc3F)ncnc2cc1OCC1CCN(C)CC1 [vandetanib],48%,–,–,-2%,–,-4%,-9%,23%,-2%,2.58%,–,–,–,–,–,–
CC(C)(C)c1nc(-c2cccc(NS(=O)(=O)c3c(F)cccc3F)c2F)c(-c2ccnc(N)n2)s1 [dabrafenib],8.55%,–,–,–,8%,–,2.85%,39%,-7.58%,-0.554%,–,–,–,–,–,–
N#CC[C@H](C1CCCC1)n1cc(-c2ncnc3[nH]ccc23)cn1 [ruxolitinib],–,–,12%,-0.393%,7%,3%,–,24%,-1.48%,11%,–,54%,20%,69%,–,–
C[C@@H](Oc1cc(-c2cnn(C3CCNCC3)c2)cnc1N)c1c(Cl)ccc(F)c1Cl [crizotinib],–,40%,13%,–,–,13%,26%,–,-2.31%,6%,–,–,–,–,–,–
CN(C)C/C=C/C(=O)Nc1cc2c(Nc3ccc(F)c(Cl)c3)ncnc2cc1O[C@H]1CCOC1 [afatinib],–,–,–,–,–,–,–,–,–,3.42%,–,–,–,–,–,–
COc1cc(Nc2c(C#N)cnc3cc(OCCCN4CCN(C)CC4)c(OC)cc23)c(Cl)cc1Cl [bosutinib],2.77%,43%,–,-2.3%,98%,–,–,–,-3.37%,–,71%,–,–,–,96%,58%
CCN(CC)CCNC(=O)c1c(C)[nH]c(/C=C2\C(=O)Nc3ccc(F)cc32)c1C [sunitinib],–,88%,–,–,85%,–,–,–,–,–,–,–,–,–,–,–
CC(=O)Nc1cccc(-n2c(=O)n(C3CC3)c(=O)c3c(Nc4ccc(I)cc4F)n(C)c(=O)c(C)c32)c1 [trametinib],-0.611%,-1.39%,–,-2.15%,4%,-3%,-6%,-4%,-7%,-1%,-2.82%,–,–,–,–,–
Cc1ccc(C(=O)Nc2ccc(CN3CCN(C)CC3)c(C(F)(F)F)c2)cc1C#Cc1cnc2cccnn12 [ponatinib],58%,101%,–,0.169%,99%,–,–,46%,12%,78%,9%,–,–,–,–,–

# Source: paper PMC3961306, “Comparison of the Cancer Gene Targeting and Biochemical Selectivities of All Targeted Kinase Inhibitors Approved for Clinical Use” (PLoS ONE, 2014)
